ChEMBL document CHEMBL1153704, “Imidazo[1,2-a]pyrazine diaryl ureas: inhibitors of the receptor tyrosine kinase EphB4” (Bioorg Med Chem Lett, 2009)

Biological target: T1, Ephrin type-B receptor 4 (Homo sapiens) (UniProt P54760)
T1 sequence (whole entry): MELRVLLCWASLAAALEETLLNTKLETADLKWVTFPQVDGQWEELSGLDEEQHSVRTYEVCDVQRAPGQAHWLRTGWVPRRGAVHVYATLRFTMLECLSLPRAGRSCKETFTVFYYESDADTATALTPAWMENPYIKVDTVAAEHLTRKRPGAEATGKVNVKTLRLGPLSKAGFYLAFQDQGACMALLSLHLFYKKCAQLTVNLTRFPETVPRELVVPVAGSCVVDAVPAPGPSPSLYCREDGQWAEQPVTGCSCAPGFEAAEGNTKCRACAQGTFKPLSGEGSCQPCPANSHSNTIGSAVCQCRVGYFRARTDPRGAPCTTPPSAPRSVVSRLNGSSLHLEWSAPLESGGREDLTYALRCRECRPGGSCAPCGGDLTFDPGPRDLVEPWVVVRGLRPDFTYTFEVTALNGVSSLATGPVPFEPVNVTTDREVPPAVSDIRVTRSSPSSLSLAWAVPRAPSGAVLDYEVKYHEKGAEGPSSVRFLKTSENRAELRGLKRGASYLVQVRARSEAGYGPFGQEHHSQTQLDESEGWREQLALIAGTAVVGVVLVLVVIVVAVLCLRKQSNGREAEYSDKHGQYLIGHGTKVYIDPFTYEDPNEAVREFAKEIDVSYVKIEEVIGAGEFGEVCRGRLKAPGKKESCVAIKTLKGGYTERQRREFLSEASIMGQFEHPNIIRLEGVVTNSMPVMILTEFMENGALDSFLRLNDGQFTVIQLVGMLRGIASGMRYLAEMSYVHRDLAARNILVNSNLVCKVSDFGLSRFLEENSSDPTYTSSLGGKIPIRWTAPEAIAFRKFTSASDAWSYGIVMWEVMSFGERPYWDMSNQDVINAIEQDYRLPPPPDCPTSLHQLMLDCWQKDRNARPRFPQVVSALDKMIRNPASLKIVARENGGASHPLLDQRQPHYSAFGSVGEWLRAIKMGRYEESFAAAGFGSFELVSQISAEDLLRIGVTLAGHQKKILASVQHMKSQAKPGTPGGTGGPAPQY
Experiment: Inhibition of EphB4 at 10 uM after 1 hr

Point of comparison: O=C(Nc1cccc(-c2cn3ccnc3c(Nc3ccncc3)n2)c1)Nc1cccc(C(F)(F)F)c1, inhibition 32%. Against it:
- O=C(Nc1cccc(-c2cn3ccnc3c(Nc3ccccc3)n2)c1)Nc1cccc(C(F)(F)F)c1 — higher, 36%
- O=C(Nc1cccc(-c2cn3ccnc3c(NCc3ccccn3)n2)c1)Nc1cccc(C(F)(F)F)c1 — the same, 32%

Biological target: T2, Angiopoietin-1 receptor (Homo sapiens, UniProt Q02763)
Experiment: Inhibition of Tie2 autophosphorylation by cell based assay

T2 sequence (Q02763 whole entry): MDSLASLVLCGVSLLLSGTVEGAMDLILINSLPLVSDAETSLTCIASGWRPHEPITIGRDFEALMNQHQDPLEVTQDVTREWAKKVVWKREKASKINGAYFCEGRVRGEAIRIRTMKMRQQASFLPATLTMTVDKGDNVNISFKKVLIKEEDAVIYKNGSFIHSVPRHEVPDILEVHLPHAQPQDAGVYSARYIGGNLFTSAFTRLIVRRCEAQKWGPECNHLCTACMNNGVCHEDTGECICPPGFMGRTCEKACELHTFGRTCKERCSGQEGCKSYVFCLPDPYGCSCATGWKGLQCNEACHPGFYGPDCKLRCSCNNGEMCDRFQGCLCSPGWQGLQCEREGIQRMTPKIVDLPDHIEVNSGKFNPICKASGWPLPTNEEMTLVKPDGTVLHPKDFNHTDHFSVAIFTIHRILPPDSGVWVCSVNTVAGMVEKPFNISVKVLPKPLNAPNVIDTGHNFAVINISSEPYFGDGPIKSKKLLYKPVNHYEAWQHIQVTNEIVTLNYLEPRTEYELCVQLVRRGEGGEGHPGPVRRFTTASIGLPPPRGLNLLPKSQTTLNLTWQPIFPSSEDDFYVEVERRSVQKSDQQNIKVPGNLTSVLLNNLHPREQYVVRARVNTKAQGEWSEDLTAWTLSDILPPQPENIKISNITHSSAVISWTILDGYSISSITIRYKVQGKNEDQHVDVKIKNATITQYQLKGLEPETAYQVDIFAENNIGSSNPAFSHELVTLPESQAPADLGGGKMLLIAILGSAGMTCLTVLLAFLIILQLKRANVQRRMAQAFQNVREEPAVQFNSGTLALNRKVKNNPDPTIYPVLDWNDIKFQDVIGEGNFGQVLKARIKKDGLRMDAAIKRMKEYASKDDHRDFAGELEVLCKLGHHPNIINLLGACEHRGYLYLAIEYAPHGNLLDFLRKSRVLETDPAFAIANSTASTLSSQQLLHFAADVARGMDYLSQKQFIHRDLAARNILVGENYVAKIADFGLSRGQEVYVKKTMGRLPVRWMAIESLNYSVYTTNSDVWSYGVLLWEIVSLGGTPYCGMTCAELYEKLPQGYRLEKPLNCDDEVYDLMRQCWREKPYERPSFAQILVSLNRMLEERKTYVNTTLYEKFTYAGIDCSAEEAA

Point of comparison: COc1ccc(C(F)(F)F)cc1NC(=O)Nc1cccc(-c2cn3ccnc3c(NCc3ccncc3)n2)c1, IC50 0.05 µM. Against it:
- COc1ccc(Br)cc1NC(=O)Nc1cccc(-c2cn3ccnc3c(NCc3ccncc3)n2)c1 — 5-fold higher, 0.25 µM
- O=C(Nc1cccc(-c2cn3ccnc3c(NCc3ccncc3)n2)c1)Nc1cc(C(F)(F)F)ccc1F — 2-fold higher, 0.1 µM

Biological target: T3, Ephrin type-B receptor 4 (Homo sapiens, UniProt P54760)
T3 sequence (P54760 whole entry): T1 sequence (whole entry)
Experiment: Inhibition of EphB4 after 1 hr

Point of comparison: O=C(Nc1ccc(F)cc1)Nc1cccc(-c2cn3ccnc3c(NCc3ccncc3)n2)c1, IC50 7.4 µM. Against it:
- Cc1ccc(NC(=O)Nc2cccc(-c3cn4ccnc4c(NCc4ccncc4)n3)c2)cc1 — within 1.5-fold, 7.9 µM
- CN(Cc1ccncc1)c1nc(-c2cccc(NC(=O)Nc3cccc(C(F)(F)F)c3)c2)cn2ccnc12 — 110-fold lower, 0.069 µM
- O=C(Nc1cccc(-c2cn3ccnc3c(NCc3ccccc3)n2)c1)Nc1cccc(C(F)(F)F)c1 — 6.8-fold higher, 50 µM
- O=C(Nc1cccc(-c2cn3ccnc3c(NCc3ccncc3)n2)c1)Nc1cccc(Cl)c1Cl — within 1.5-fold, 5.7 µM
- O=C(Nc1cccc(-c2cn3ccnc3c(NCc3ccncc3)n2)c1)Nc1ccc(F)c(C(F)(F)F)c1 — 8.7-fold lower, 0.85 µM
- N#Cc1cccc(NC(=O)Nc2cccc(-c3cn4ccnc4c(NCc4ccncc4)n3)c2)c1 — 3.9-fold lower, 1.9 µM
- O=C(Nc1cccc(-c2cn3ccnc3c(NCC3CCNCC3)n2)c1)Nc1cccc(C(F)(F)F)c1 — 6.8-fold higher, 50 µM
- O=C(Nc1cccc(-c2cn3ccnc3c(NCc3ccncc3)n2)c1)Nc1cc(C(F)(F)F)ccc1O — 200-fold lower, 0.037 µM
- O=C(Nc1cccc(-c2cn3ccnc3c(NCc3ccncc3)n2)c1)Nc1ccccc1Br — 4.4-fold lower, 1.7 µM
- O=C(Nc1cccc(-c2cn3ccnc3c(NCc3ccncc3)n2)c1)c1cccc(C(F)(F)F)c1 — 9.9-fold lower, 0.744 µM
- O=C(Nc1cccc(-c2cn3ccnc3c(NCc3ccncc3)n2)c1)Nc1ccc(Cl)c(Cl)c1 — 3-fold lower, 2.5 µM
- O=C(NCc1cccc(C(F)(F)F)c1)Nc1cccc(-c2cn3ccnc3c(NCc3ccncc3)n2)c1 — 3.5-fold lower, 2.1 µM
- COc1cc(OC)c(C(F)(F)F)cc1NC(=O)Nc1cccc(-c2cn3ccnc3c(NCc3ccncc3)n2)c1 — 14-fold lower, 0.518 µM
- O=C(NCc1cccc(-c2cn3ccnc3c(NCc3ccncc3)n2)c1)Nc1cccc(C(F)(F)F)c1 — within 1.5-fold, 6.8 µM
- O=C(Nc1cccc(Cl)c1)Nc1cccc(-c2cn3ccnc3c(NCc3ccncc3)n2)c1 — 45-fold lower, 0.165 µM
- O=C(Nc1cccc(-c2cn3ccnc3c(NCc3ccncc3)n2)c1)Nc1c(Cl)cccc1Cl — 7.4-fold lower, 1 µM
- O=C(Nc1cccc(Br)c1)Nc1cccc(-c2cn3ccnc3c(NCc3ccncc3)n2)c1 — 35-fold lower, 0.213 µM
- O=C(Nc1cccc(Oc2ccccc2)c1)Nc1cccc(-c2cn3ccnc3c(NCc3ccncc3)n2)c1 — within 1.5-fold, 10.5 µM
- Cc1ccc(C)c(NC(=O)Nc2cccc(-c3cn4ccnc4c(NCc4ccncc4)n3)c2)c1 — 7.9-fold lower, 0.938 µM
- O=C(NCc1cccc(C(F)(F)F)c1)c1cccc(-c2cn3ccnc3c(NCc3ccncc3)n2)c1 — within 1.5-fold, 11.1 µM
- O=C(Cc1cccc(C(F)(F)F)c1)Nc1cccc(-c2cn3ccnc3c(NCc3ccncc3)n2)c1 — 3.1-fold lower, 2.4 µM
- COc1ccc(C#N)cc1NC(=O)Nc1cccc(-c2cn3ccnc3c(NCc3ccncc3)n2)c1 — 59-fold lower, 0.125 µM
- O=C(Nc1ccc(-c2cn3ccnc3c(NCc3ccncc3)n2)cc1)Nc1cccc(C(F)(F)F)c1 — 6.8-fold higher, 50 µM
- O=C(Nc1cccc(-c2cn3ccnc3c(NCc3ccncc3)n2)c1)Nc1cc(C(F)(F)F)ccc1Cl — 110-fold lower, 0.066 µM
- O=C(Nc1cccc(-c2cn3ccnc3c(NCc3ccncc3)n2)c1)Nc1cc(Cl)ccc1Cl — 73-fold lower, 0.101 µM
- CCOc1cc(OCC)c(C(F)(F)F)cc1NC(=O)Nc1cccc(-c2cn3ccnc3c(NCc3ccncc3)n2)c1 — 35-fold lower, 0.211 µM
- Cc1cccc(NC(=O)Nc2cccc(-c3cn4ccnc4c(NCc4ccncc4)n3)c2)c1 — 25-fold lower, 0.3 µM
- Cc1ccc(NC(=O)Nc2cccc(-c3cn4ccnc4c(NCc4ccncc4)n3)c2)cc1C(F)(F)F — 9.1-fold lower, 0.81 µM
- O=C(Nc1ccc(Cl)cc1)Nc1cccc(-c2cn3ccnc3c(NCc3ccncc3)n2)c1 — 1.6-fold lower, 4.6 µM
- COc1ccc(C)cc1NC(=O)Nc1cccc(-c2cn3ccnc3c(NCc3ccncc3)n2)c1 — 95-fold lower, 0.078 µM
- O=S(=O)(Nc1cccc(-c2cn3ccnc3c(NCc3ccncc3)n2)c1)c1cccc(C(F)(F)F)c1 — 6.8-fold higher, 50 µM
- COc1ccc(Cl)cc1NC(=O)Nc1cccc(-c2cn3ccnc3c(NCc3ccncc3)n2)c1 — 96-fold lower, 0.077 µM
- O=C(Nc1cccc(-c2cn3ccnc3c(NCc3ccc(C(=O)O)cc3)n2)c1)Nc1cccc(C(F)(F)F)c1 — within 1.5-fold, 5.3 µM
- CSc1cccc(NC(=O)Nc2cccc(-c3cn4ccnc4c(NCc4ccncc4)n3)c2)c1 — 6.2-fold lower, 1.2 µM
- O=C(Nc1cccc(-c2cn3ccnc3c(NCc3ccncc3)n2)c1)Nc1ccc(Cl)c(C(F)(F)F)c1 — 6.2-fold lower, 1.2 µM
- O=C(Nc1cccc(-c2cn3ccnc3c(OCc3ccncc3)n2)c1)Nc1cccc(C(F)(F)F)c1 — 70-fold lower, 0.105 µM
- O=C(Nc1cccc(-c2cn3ccnc3c(NCc3ccncc3)n2)c1)Nc1cc(Cl)c(Cl)cc1Cl — 14-fold lower, 0.517 µM
- O=C(Nc1cccc(-c2cn3ccnc3c(NCc3ccncc3)n2)c1)Nc1ccc(Cl)cc1Cl — 3.9-fold lower, 1.9 µM
- COc1cccc(NC(=O)Nc2cccc(-c3cn4ccnc4c(NCc4ccncc4)n3)c2)c1 — 4.4-fold lower, 1.7 µM
- COc1cc(OC)c(NC(=O)Nc2cccc(-c3cn4ccnc4c(NCc4ccncc4)n3)c2)cc1Cl — 18-fold lower, 0.402 µM
- COc1ccc(Cl)cc1NC(=O)Nc1cccc(-c2cn3ccnc3c(N)n2)c1 — within 1.5-fold, 5.4 µM
- Cc1ccc(Cl)cc1NC(=O)Nc1cccc(-c2cn3ccnc3c(NCc3ccncc3)n2)c1 — 46-fold lower, 0.16 µM
- O=C(Nc1cccc(-c2cn3ccnc3c(NCc3ccncc3)n2)c1)Nc1cc(Cl)ccc1Oc1ccccc1 — 54-fold lower, 0.138 µM
- O=C(Nc1cccc(-c2cn3ccnc3c(NCc3ccncc3)n2)c1)Nc1ccccc1Cl — 2.6-fold lower, 2.9 µM
- CNc1nc(-c2cccc(NC(=O)Nc3cc(Cl)ccc3OC)c2)cn2ccnc12 — within 1.5-fold, 5.7 µM
- O=C(Nc1cccc(-c2cn3ccnc3c(NCc3cccnc3)n2)c1)Nc1cccc(C(F)(F)F)c1 — within 1.5-fold, 7.8 µM
- COc1cc(OC)c(NC(=O)Nc2cccc(-c3cn4ccnc4c(NCc4ccncc4)n3)c2)cc1Br — 36-fold lower, 0.206 µM
- O=C(Nc1cc(Cl)cc(Cl)c1)Nc1cccc(-c2cn3ccnc3c(NCc3ccncc3)n2)c1 — 4.1-fold lower, 1.8 µM
- O=C(Nc1cccc(-c2cn3ccnc3c(NCCc3ccncc3)n2)c1)Nc1cccc(C(F)(F)F)c1 — 47-fold lower, 0.158 µM

Biological target: T2, Angiopoietin-1 receptor
Experiment: Inhibition of Tie2 after 1 hr

Point of comparison: O=C(Nc1cccc(-c2cn3ccnc3c(NCc3ccncc3)n2)c1)Nc1cc(C(F)(F)F)ccc1F, IC50 0.037 µM. Against it:
- COc1ccc(C(F)(F)F)cc1NC(=O)Nc1cccc(-c2cn3ccnc3c(NCc3ccncc3)n2)c1 — within 1.5-fold, 0.033 µM
- COc1ccc(Br)cc1NC(=O)Nc1cccc(-c2cn3ccnc3c(NCc3ccncc3)n2)c1 — 2-fold higher, 0.075 µM

Biological target: T1, Ephrin type-B receptor 4 (Homo sapiens)
Experiment: Inhibition of EphB4 at 1 uM after 1 hr

Point of comparison: CCc1ccc(NC(=O)Nc2cccc(-c3cn4ccnc4c(NCc4ccncc4)n3)c2)cc1, inhibition 10%. Against it:
- O=C(Nc1cccc(-c2cn3ccnc3c(NCc3ccncc3)n2)c1)Nc1ccccc1Oc1ccccc1 — higher, 22%
- O=C(Nc1cccc(-c2cn3ccnc3c(NCc3ccncc3)n2)c1)Nc1ccccc1F — higher, 22%
- Cc1ccccc1NC(=O)Nc1cccc(-c2cn3ccnc3c(NCc3ccncc3)n2)c1 — higher, 30%
- COc1ccc(C(F)(F)F)cc1NC(=O)CNc1cccc(-c2cn3ccnc3c(NCc3ccncc3)n2)c1 — lower, 2.9%
- COc1ccc(NC(=O)Nc2cccc(-c3cn4ccnc4c(NCc4ccncc4)n3)c2)cc1 — the same, 10%
- O=C(Nc1ccccc1)Nc1cccc(-c2cn3ccnc3c(NCc3ccncc3)n2)c1 — the same, 10%
- COc1ccccc1NC(=O)Nc1cccc(-c2cn3ccnc3c(NCc3ccncc3)n2)c1 — higher, 54%
- O=C(Nc1cccc(-c2cn3ccnc3c(Nc3cccnc3)n2)c1)Nc1cccc(C(F)(F)F)c1 — lower, 1%
- CSc1ccccc1NC(=O)Nc1cccc(-c2cn3ccnc3c(NCc3ccncc3)n2)c1 — higher, 63%
- O=C(Nc1ccc(C(F)(F)F)cc1)Nc1cccc(-c2cn3ccnc3c(NCc3ccncc3)n2)c1 — the same, 10%
- O=C(Nc1cccc(F)c1)Nc1cccc(-c2cn3ccnc3c(NCc3ccncc3)n2)c1 — higher, 47%
- O=C(Nc1cccc(-c2cn3ccnc3c(NCc3ccncc3)n2)c1)Nc1ccccc1C(F)(F)F — higher, 41%
- O=C(Nc1ccc(Br)cc1)Nc1cccc(-c2cn3ccnc3c(NCc3ccncc3)n2)c1 — higher, 22%
